Data published in PubChem BioAssay (NCI).
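All cell lines were grown in 96-well plates and treated with compound for 48 hours. TGI: concentration producing complete growth inhibition.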

What was measured:
Assay in all cases: inhibition of tumour cell growth, NCI panel, 48 h
[1] = test system: SK-MEL-2 melanoma
[2] = test system: SN12C renal
[3] = test system: RXF 393 renal
[4] = test system: TK-10 renal
[5] = test system: SF-539 CNS
[6] = test system: MALME-3M melanoma
[7] = test system: OVCAR-5 ovarian
[8] = test system: SK-OV-3 ovarian
[9] = test system: SNB-78 CNS
[10] = test system: XF 498 CNS
[11] = test system: OVCAR-8 ovarian
[12] = test system: HCC-2998 colon
[13] = test system: M19-MEL melanoma
[14] = test system: K-562 leukemia
[15] = test system: NCI-H522 lung
[16] = test system: KM20L2 colon
[17] = test system: LOX IMVI melanoma
[18] = test system: SR leukemia
[19] = test system: NCI-H23 lung
[20] = test system: RXF-631 renal
[21] = test system: CAKI-1 renal
[22] = test system: HCT-116 colon
[23] = test system: ACHN renal
[24] = test system: COLO 205 colon
[25] = test system: HOP-62 NSCLC
[26] = test system: NCI-H460 lung
[27] = test system: CCRF-CEM leukemia
[28] = test system: SW-620 colon
[29] = test system: 786-0 renal
[30] = test system: HCT-15 colon
[31] = test system: UACC-257 melanoma
[32] = test system: OVCAR-4 ovarian
[33] = test system: HL-60(TB) leukemia
[34] = test system: DLD-1 colon
[35] = test system: HOP-18 NSCLC
[36] = test system: KM12 colon
[37] = test system: UO-31 renal
[38] = test system: LXFL 529 NSCLC
[39] = test system: DMS 114 small cell lung
[40] = test system: SK-MEL-28 melanoma
[41] = test system: UACC-62 melanoma
[42] = test system: EKVX NSCLC
[43] = test system: M14 melanoma
[44] = test system: U251 CNS
[45] = test system: DMS 273 small cell lung
[46] = test system: SF-268 CNS
[47] = test system: MOLT-4 leukemia
[48] = test system: SF-295 CNS
[49] = test system: HT29 colon
[50] = test system: IGROV1 ovarian
[51] = test system: SNB-19 CNS
[52] = test system: OVCAR-3 ovarian
[53] = test system: A549 NSCLC
[54] = test system: HOP-92 NSCLC
[55] = test system: NCI-H226 lung
[56] = test system: SNB-75 CNS
[57] = test system: RPMI-8226 leukemia
[58] = test system: SK-MEL-5 melanoma
[59] = test system: A498 renal

For `Cc1nc(N)sc1C(=O)/C=C/c1ccc(/C=C/C(=O)c2sc(NC(=O)CCCCCCCCC(=O)Nc3nc(C)c(C(=O)/C=C/c4ccc(/C=C/C(=O)c5sc(N)nc5C)cc4)s3)nc2C)cc1`, the TGI [1] was > 100 µM, the TGI [2] was > 100 µM and the TGI [3] was > 100 µM. For the same compound, the TGI [4] was > 100 µM, the TGI [5] was > 100 µM and the TGI [6] was > 100 µM. For the same compound, the TGI [7] was > 100 µM, the TGI [8] was > 100 µM and the TGI [9] was > 100 µM. The TGI [10] was > 100 µM, the TGI [11] was > 100 µM and the TGI [12] was > 100 µM. For the same compound, the TGI [13] was > 100 µM, the TGI [14] was > 100 µM and the TGI [15] was > 100 µM. The TGI [16] was > 100 µM, the TGI [17] was > 100 µM and the TGI [18] was > 100 µM. For the same compound, the TGI [19] was > 100 µM, the TGI [20] was > 100 µM and the TGI [21] was > 100 µM. For the same compound, the TGI [22] was > 100 µM, the TGI [23] was > 100 µM and the TGI [24] was > 100 µM. For the same compound, the TGI [25] was > 100 µM, the TGI [26] was > 100 µM and the TGI [27] was > 100 µM. For the same compound, the TGI [28] was > 100 µM, the TGI [29] was > 100 µM and the TGI [30] was > 100 µM. For the same compound, the TGI [31] was > 100 µM, the TGI [32] was > 100 µM and the TGI [33] was > 100 µM. For the same compound, the TGI [34] was > 100 µM, the TGI [35] was > 100 µM and the TGI [36] was > 100 µM. For the same compound, the TGI [37] was > 100 µM, the TGI [38] was > 100 µM and the TGI [39] was > 100 µM. The TGI [40] was > 100 µM, the TGI [41] was 87.8 µM and the TGI [42] was > 100 µM. The TGI [43] was > 100 µM, the TGI [44] was > 100 µM and the TGI [45] was > 100 µM. For the same compound, the TGI [46] was > 100 µM, the TGI [47] was > 100 µM and the TGI [48] was > 100 µM. The TGI [49] was > 100 µM, the TGI [50] was > 100 µM and the TGI [51] was > 100 µM. For the same compound, the TGI [52] was > 100 µM and the TGI [53] was > 100 µM.
`O=C1C(Br)=C[C@H]2C3C=CC(Br)(C3=O)[C@@H]12` (stereo partly drawn) gave a TGI [1] of 28.4 µM, a TGI [2] of 25.9 µM and a TGI [3] of 27.3 µM. For the same compound, the TGI [5] was 39.4 µM, the TGI [6] was 26.2 µM and the TGI [7] was 29 µM. The TGI [8] was > 100 µM, the TGI [9] was > 100 µM and the TGI [10] was 31.2 µM. It also gave a TGI [11] of 26 µM, a TGI [12] of 26.2 µM and a TGI [13] of 24.8 µM. For the same compound, the TGI [14] was > 100 µM, the TGI [15] was 18.2 µM and the TGI [16] was 18.2 µM. For the same compound, the TGI [54] was 29.7 µM, the TGI [19] was 25 µM and the TGI [55] was 40.9 µM. The TGI [20] was 50.1 µM, the TGI [21] was 24 µM and the TGI [22] was 22.8 µM. It also gave a TGI [23] of 34.3 µM, a TGI [24] of 21.4 µM and a TGI [25] of 92.5 µM. For the same compound, the TGI [27] was 13.7 µM, the TGI [56] was 92.8 µM and the TGI [28] was 21.1 µM. It also gave a TGI [29] of 48.2 µM, a TGI [30] of 24.6 µM and a TGI [31] of 24.8 µM. It also gave a TGI [32] of 29.4 µM, a TGI [33] of 23 µM and a TGI [34] of 20.5 µM. The TGI [35] was > 100 µM, the TGI [36] was 24.4 µM and the TGI [37] was 31.1 µM. For the same compound, the TGI [38] was 21.8 µM, the TGI [39] was 28.3 µM and the TGI [40] was 25.7 µM. The TGI [41] was 14.9 µM, the TGI [42] was 28.8 µM and the TGI [43] was 21.6 µM. The TGI [44] was 27.3 µM, the TGI [45] was 27 µM and the TGI [57] was > 100 µM. The TGI [46] was 43.6 µM, the TGI [47] was 27.2 µM and the TGI [58] was 27.2 µM. It also gave a TGI [48] of 51 µM, a TGI [49] of 23.8 µM and a TGI [59] of 37.9 µM. The TGI [50] was 29.4 µM, the TGI [51] was 32.6 µM and the TGI [52] was 27.1 µM. The TGI [53] was 76.9 µM.
